Laboratory results reported in patent publication US9924717B2, “Molecules having pesticidal utility, and intermediates, compositions, and processes, related thereto” (Dow AgroSciences LLC, priority 2016, dated 2018).
Where two headings read alike, the source gives them in different places.

Legend:
[1] = tested on: Beet Armyworm (Spodoptera exigua, LAPHEG) (BAW); test: Bioassays on Beet Armyworm (BAW), 128-well diet tray assay; format: in vivo; details: for pest or weed control at 50 µg/cm2: Table ABC rating, Beet Armyworm; for mortality at 5 µg/cm2: 168 h, diet tray, second instar larvae, five to seven days, read-out: Percent control (or mortality) BAW
Experimental: (§1) Example A: Bioassays on Beet Armyworm (Spodoptera exigua, LAPHEG) (“BAW”), Corn Earworm (Helicoverpa zea, Helize) (“CEW”), and Cabbage Looper (Trichoplusia ni, TRIPNI) (“CL”)
(§2) Certain molecules disclosed in this document were tested against BAW, CEW, and CL using procedures described in the following examples. In the reporting of the results, the “BAW, CEW, & CL Rating Table” was used (See Table Section).
Bioassays on BAW were conducted using a 128-well diet tray assay. one to five second instar BAW larvae were placed in each well (3 mL) of the diet tray that had been previously filled with 1 mL of artificial diet to which 50 μg/cm^2 of the test molecule (dissolved in 50 μL of 90:10 acetone-water mixture) had been applied (to each of eight wells) and then allowed to dry. Trays were covered with a clear self-adhesive cover and held at 25° C., 14:10 light-dark for five to seven days. Percent mortality was recorded for the larvae in each well; activity in the eight wells was then averaged. The results are indicated in the table entitled “Table ABC: Biological Results” (See Table Section).
(§3) Bioassays on BAW and CL were conducted according to the procedures outlined in Example A: Bioassays on Beet Armyworm (“BAW”) and Cabbage Looper (“CL”) using the indicated concentrations.

[2] = tested on: Cabbage Looper (Trichoplusia ni, TRIPNI) (CL); test: Bioassays on Cabbage Looper (CL), 128-well diet tray assay; format: in vivo; details: for pest or weed control at 50 µg/cm2: Table ABC rating, Cabbage Looper; for mortality at 5 µg/cm2: 168 h, diet tray, second instar larvae, five to seven days, read-out: Percent control (or mortality) CL
Experimental: as §1, §2
Bioassays on CL were conducted using a 128-well diet tray assay. one to five second instar CL larvae were placed in each well (3 mL) of the diet tray that had been previously filled with 1 mL of artificial diet to which 50 μg/cm^2 of the test molecule (dissolved in 50 μL of 90:10 acetone-water mixture) had been applied (to each of eight wells) and then allowed to dry. Trays were covered with a clear self-adhesive cover and held at 25° C., 14:10 light-dark for five to seven days. Percent mortality was recorded for the larvae in each well; activity in the eight wells was then averaged. The results are indicated in the table entitled “Table ABC: Biological Results” (See Table Section).
as §3

[3] = 5 μg/cm^2 (first BAW/CL column pair)
[4] = 5 μg/cm^2 as printed (second BAW/CL column pair)

Compound `O=C(NC1CSC1)c1ccc(/C(F)=C/C(c2cc(Cl)c(Cl)c(Cl)c2)C(F)(F)F)cc1C(F)(F)F` (stereo not shown) [PF2, (Z)-4-(1,4,4,4-Tetrafluoro-3-(3,4,5-trichlorophenyl)but-1-en-1-yl)-N-(thietan-3-yl)-2-(trifluoromethyl)benzamide] has a pest or weed control at 50 µg/cm2 [1] of 50 to 100% and a pest or weed control at 50 µg/cm2 [2] of 50 to 100%.

Compound `O=C(NC1CCC(F)(F)CC1)c1ccc(/C(F)=C/C(c2cc(Cl)c(Cl)c(Cl)c2)C(F)(F)F)cc1Br` (stereo not shown) [F10, (Z)-2-Bromo-N-(4,4-difluorocyclohexyl)-4-(1,4,4,4-tetrafluoro-3-(3,4,5-trichlorophenyl)but-1-en-1-yl)benzamide] has a pest or weed control at 50 µg/cm2 [1] of 50 to 100% and a pest or weed control at 50 µg/cm2 [2] of 50 to 100%.

`COc1cccc([C@@H](C)NC(=O)c2ccc(/C(F)=C/C(c3cc(Cl)c(Cl)c(Cl)c3)C(F)(F)F)cc2C(F)(F)F)c1` (stereo partly drawn) [F14, N—((R)-1-(3-Methoxyphenyl)ethyl)-4-((Z)-1,4,4,4-tetrafluoro-3-(3,4,5-trichlorophenyl)but-1-en-1-yl)-2-(trifluoromethyl)benzamide] gave a pest or weed control at 50 µg/cm2 [1] of 50 to 100% and a pest or weed control at 50 µg/cm2 [2] of 50 to 100%.

For `O=C(NC1CCCC(F)(F)C1)c1ccc(/C(F)=C/C(c2cc(Cl)c(Cl)c(Cl)c2)C(F)(F)F)cc1C(F)(F)F` (stereo not shown) [F13, (Z)—N-(3,3-Difluorocyclohexyl)-4-(1,4,4,4-tetrafluoro-3-(3,4,5-trichlorophenyl)but-1-en-1-yl)-2-(trifluoromethyl)benzamide], the pest or weed control at 50 µg/cm2 [1] was 50 to 100% and the pest or weed control at 50 µg/cm2 [2] was 50 to 100%.

In the case of `CC(NC(=O)c1ccc(/C(F)=C/C(c2cc(Br)c(Cl)c(Br)c2)C(F)(F)F)cc1C(F)(F)F)C(F)(F)F` (stereo not shown) [F36, 4-((Z)-3-(3,5-Dibromo-4-chlorophenyl)-1,4,4,4-tetrafluorobut-1-en-1-yl)-2-(trifluoromethyl)-N-(1,1,1-trifluoropropan-2-yl)benzamide], the pest or weed control at 50 µg/cm2 [1] is reported as 50 to 100% and the pest or weed control at 50 µg/cm2 [2] is reported as 50 to 100%.

For `CC(NC(=O)c1ccc(/C(F)=C/C(c2cc(Cl)c(Br)c(Cl)c2)C(F)(F)F)cc1C(F)(F)F)C(F)(F)F` (stereo not shown) [F38, 4-((Z)-3-(4-Bromo-3,5-dichlorophenyl)-1,4,4,4-tetrafluorobut-1-en-1-yl)-2-(trifluoromethyl)-N-(1,1,1-trifluoropropan-2-yl)benzamide], the pest or weed control at 50 µg/cm2 [1] was 50 to 100% and the pest or weed control at 50 µg/cm2 [2] was 50 to 100%.

`O=C(c1ccc(/C(F)=C/C(c2cc(Cl)c(Cl)c(Cl)c2)C(F)(F)F)cc1C(F)(F)F)N1CCCC1` (stereo not shown) [F6, (Z)-Pyrrolidin-1-yl(4-(1,4,4,4-tetrafluoro-3-(3,4,5-trichlorophenyl)but-1-en-1-yl)-2-(trifluoromethyl)phenyl) methanone] gave a pest or weed control at 50 µg/cm2 [1] of 50 to 100% and a pest or weed control at 50 µg/cm2 [2] of 50 to 100%.

Compound `O=C(NC1CS(=O)(=O)C1)c1ccc(/C(F)=C/C(c2cc(Cl)c(Cl)c(Cl)c2)C(F)(F)F)cc1C(F)(F)F` (stereo not shown) [PF4, (Z)—N-(1,1-Dioxidothietan-3-yl)-4-(1,4,4,4-tetrafluoro-3-(3,4,5-trichlorophenyl)but-1-en-1-yl)-2-(trifluoromethyl)benzamide] has a pest or weed control at 50 µg/cm2 [1] of 50 to 100% and a pest or weed control at 50 µg/cm2 [2] of 50 to 100%.

`O=C(NC1CC1)c1ccc(/C(F)=C/C(c2ccc(Cl)c(Cl)c2)C(F)(F)F)cc1C(F)(F)F` (stereo not shown) [F35, (Z)—N-Cyclopropyl-4-(3-(3,4-dichlorophenyl)-1,4,4,4-tetrafluorobut-1-en-1-yl)-2-(trifluoromethyl)benzamide] gave a pest or weed control at 50 µg/cm2 [1] of 50 to 100% and a pest or weed control at 50 µg/cm2 [2] of 50 to 100%.

Compound `Cc1cc(C(/C=C(\F)c2ccc(C(=O)NC3CC3)c(C(F)(F)F)c2)C(F)(F)F)cc(C)c1Cl` (stereo not shown) [F37, (Z)-4-(3-(4-Chloro-3,5-dimethylphenyl)-1,4,4,4-tetrafluorobut-1-en-1-yl)-N-cyclopropyl-2-(trifluoromethyl)benzamide] has a pest or weed control at 50 µg/cm2 [1] of 50 to 100% and a pest or weed control at 50 µg/cm2 [2] of 50 to 100%.

`O=C(NCc1ccnc(Cl)c1)c1ccc(/C(F)=C/C(c2cc(Cl)c(Cl)c(Cl)c2)C(F)(F)F)cc1C(F)(F)F` (stereo not shown) [F47, (Z)—N-((2-Chloropyridin-4-yl)methyl)-4-(1,4,4,4-tetrafluoro-3-(3,4,5-trichlorophenyl)but-1-en-1-yl)-2-(trifluoromethyl)benzamide] showed a pest or weed control at 50 µg/cm2 [1] of 50 to 100% and a pest or weed control at 50 µg/cm2 [2] of 50 to 100%.

With `CN(C)/C=N/C(=O)c1ccc(/C(F)=C/C(c2cc(Cl)c(Cl)c(Cl)c2)C(F)(F)F)cc1C(F)(F)F` (stereo not shown) [F18, (E)-N-((dimethylamino)methylene)-4-((Z)-1,4,4,4-tetrafluoro-3-(3,4,5-trichlorophenyl)but-1-en-1-yl)-2-(trifluoromethyl)benzamide] the pest or weed control at 50 µg/cm2 [1] was 50 to 100% and the pest or weed control at 50 µg/cm2 [2] was 50 to 100%.

`O=C(NCC(F)(F)F)c1ccc(/C(F)=C/C(c2cc(Cl)c(Cl)c(Cl)c2)C(F)(F)F)cc1C(F)(F)F` (stereo not shown) [F1, (Z)-4-(1,4,4,4-tetrafluoro-3-(3,4,5-trichlorophenyl)but-1-en-1-yl)-N-(2,2,2-trifluoroethyl)-2-(trifluoromethyl)benzamide] showed a mortality at 5 µg/cm2 [1, 3] of 100%, a mortality at 5 µg/cm2 [1, 4] of 100% and a pest or weed control at 50 µg/cm2 [1] of 50 to 100%. The mortality at 5 µg/cm2 [2, 3] was 100%, the mortality at 5 µg/cm2 [2, 4] was 100% and the pest or weed control at 50 µg/cm2 [2] was 50 to 100%.

For `CC(NC(=O)c1ccc(/C(F)=C/C(c2cc(Cl)c(Cl)c(Cl)c2)C(F)(F)F)cc1C(F)(F)F)C(F)(F)F` (stereo not shown) [F2, (Z)-4-(1,4,4,4-Tetrafluoro-3-(3,4,5-trichlorophenyl)but-1-en-1-yl)-2-(trifluoromethyl)-N-(1,1,1-trifluoropropan-2-yl)benzamide], the pest or weed control at 50 µg/cm2 [1] was 50 to 100% and the pest or weed control at 50 µg/cm2 [2] was 50 to 100%.

In the case of `N#CC1(NC(=O)c2ccc(/C(F)=C/C(c3cc(Cl)c(Cl)c(Cl)c3)C(F)(F)F)cc2C(F)(F)F)CC1` (stereo not shown) [F62, (Z)—N-(1-Cyanocyclopropyl)-4-(1,4,4,4-tetrafluoro-3-(3,4,5-trichlorophenyl)but-1-en-1-yl)-2-(trifluoromethyl)benzamide], the pest or weed control at 50 µg/cm2 [1] is reported as 50 to 100% and the pest or weed control at 50 µg/cm2 [2] is reported as 50 to 100%.

In the case of `O=CNC(=O)c1ccc(/C(F)=C/C(c2cc(Cl)c(Cl)c(Cl)c2)C(F)(F)F)cc1C(F)(F)F` (stereo not shown) [F20, (Z)—N-Formyl-4-(1,4,4,4-tetrafluoro-3-(3,4,5-trichlorophenyl)but-1-en-1-yl)-2-(trifluoromethyl)benzamide], the pest or weed control at 50 µg/cm2 [1] is reported as 50 to 100% and the pest or weed control at 50 µg/cm2 [2] is reported as 50 to 100%.

Compound `NC(=O)c1ccc(/C(F)=C/C(c2cc(Cl)c(Cl)c(Cl)c2)C(F)(F)F)cc1C(F)(F)F` (stereo not shown) [F17, (Z)-4-(1,4,4,4-Tetrafluoro-3-(3,4,5-trichlorophenyl)but-1-en-1-yl)-2-(trifluoromethyl)benzamide] has a pest or weed control at 50 µg/cm2 [1] of 50 to 100% and a pest or weed control at 50 µg/cm2 [2] of 50 to 100%.

`Cc1cc(/C(F)=C/C(c2cc(Cl)c(Cl)c(Cl)c2)C(F)(F)F)ccc1C(=O)NCC(F)(F)F` (stereo not shown) [F39, (Z)-2-Methyl-4-(1,4,4,4-tetrafluoro-3-(3,4,5-trichlorophenyl)but-1-en-1-yl)-N-(2,2,2-trifluoroethyl)benzamide] showed a mortality at 5 µg/cm2 [1, 3] of 33%, a mortality at 5 µg/cm2 [1, 4] of 27% and a pest or weed control at 50 µg/cm2 [1] of 50 to 100%. It also gave a mortality at 5 µg/cm2 [2, 3] of 100%, a mortality at 5 µg/cm2 [2, 4] of 100% and a pest or weed control at 50 µg/cm2 [2] of 50 to 100%.

`O=C(NC1C[S+]([O-])C1)c1ccc(/C(F)=C/C(c2cc(Cl)c(Cl)c(Cl)c2)C(F)(F)F)cc1C(F)(F)F` (stereo not shown) [PF3] was tested, and the pest or weed control at 50 µg/cm2 [1] was 50 to 100% and the pest or weed control at 50 µg/cm2 [2] was 50 to 100%.
